From US9758527B2, “Cyclohexene derivative, preparation method therefor, and pharmaceutical composition for preventing or treating metabolic diseases, containing same as active ingredient” (HYUNDAI PHARM CO., LTD., priority 2014, dated 2017)
Read-outs that look alike come from different tables or passages of the source.

Target: T1, G protein-coupled receptor 119 (GPR-119) (Mesocricetus auratus, UniProt A0A1U8CD06)
T1 construct: hamster-derived β-cells containing G protein-coupled receptor 119 (GPR-119), HIT-T15 cells; host or cells: HIT-T15 (hamster pancreatic β-cells)
T1 sequence (A0A1U8CD06 1-334): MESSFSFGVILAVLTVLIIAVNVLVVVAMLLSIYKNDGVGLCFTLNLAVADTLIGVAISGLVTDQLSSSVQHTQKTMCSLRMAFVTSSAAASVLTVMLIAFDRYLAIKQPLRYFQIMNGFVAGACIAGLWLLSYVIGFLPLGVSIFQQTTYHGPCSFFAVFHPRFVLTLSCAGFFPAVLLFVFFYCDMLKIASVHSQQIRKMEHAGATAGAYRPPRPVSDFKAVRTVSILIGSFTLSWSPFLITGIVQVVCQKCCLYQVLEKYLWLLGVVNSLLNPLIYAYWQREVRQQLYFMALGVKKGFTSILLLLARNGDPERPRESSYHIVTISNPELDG
Experiment: Evaluation of cAMP activity in HIT-T15 cells (HTRF cAMP dynamic kit)
Assay type: cell-based, hamster
Details: cAMP activation
How it was run: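 HIT-T15 cells, 60,000/well, treated next day with compound at six concentrations ([…]) for 1 h at 37° C. Lysate cAMP quantified by HTRF competitive immunoassay (D2-cAMP, cryptate anti-cAMP); activity taken as change in FRET signal relative to DMSO.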

[1] = 1 h at 37° C., six concentrations, read-out: EC50

| SMILES | EC50 [1] [nM] | EC50 (read-out: EC50 value) [nM] | EC50 (EC50 (nM), 1 h at 37° C., six concentrations) [nM] | EC50 (EC50 value) [nM] |
| --- | --- | --- | --- | --- |
| CC(C)c1noc(N2CCC(COc3ccc(C4=CCC(C(=O)N5CCC[C@H]5C#N)CC4)cc3F)CC2)n1 (stereo partly drawn) [Example 115, (2S)-1-(4-(3-fluoro-4-((1-(3-isopropyl-1,2,4-oxadiazol-5-yl)piperidin-4-yl)methoxy)phenyl)cyclohex-3-enecarbonyl)pyrrolidine-2-carbonitrile] | 15 | ≤ 50 | – | – |
| C[C@@H](CO)NC(=O)C1CC=C(c2ccc(OCC3CCN(C(=O)OC(C)(C)C)CC3)cn2)CC1 (stereo partly drawn) [Example 11, tert-butyl 4-((6-(4-((S)-1-hydroxypropan-2-ylcarbamoyl)cyclohex-1-enyl)pyridin-3-yloxy)methyl)piperidine-1-carboxylate] | 110 | – | – | – |
| CC(C)(C)OC(=O)N1CCC(COc2ccc(C3=CCC(C(=O)N4CCC(F)(F)C4)CC3)cc2)CC1 (centres unmarked) [Example 257, tert-butyl 4-((4-(4-(3,3-difluoropyrrolidine-1-carbonyl)cyclohex-1-enyl)phenoxy)methyl)piperidine-1-carboxylate] | 8 | ≤ 50 | – | – |
| CN(CCCO)C(=O)C1CC=C(c2ccc(OCC3CCN(C(=O)OC(C)(C)C)CC3)cc2)CC1 (centres unmarked) [Example 6, tert-butyl 4-((4-(4-((3-hydroxypropyl)(methyl)carbamoyl)cyclohex-1-enyl)phenoxy)methyl)piperidine-1-carboxylate] | 38 | ≤ 50 | – | – |
| CCc1cnc(N2CCC(COc3ccc(C4=CCC(C(=O)NCC(F)F)CC4)cc3)CC2)nc1 (centres unmarked) [Example 50, N-(2,2-difluoroethyl)-4-(4-((1-(5-ethylpyrimidin-2-yl)piperidin-4-yl)methoxy)phenyl)cyclohex-3-enecarboxamide] | 95 | – | – | – |
| CC(C)(C)OC(=O)N1CCC(COc2ccc(C3=CCC(C(=O)N4CCN(CC5CC5)CC4)CC3)cc2)CC1 (centres unmarked) [Example 256, tert-butyl 4-((4-(4-(4-(cyclopropylmethyl)piperazine-1-carbonyl)cyclohex-1-enyl)phenoxy)methyl)piperidine-1-carboxylate] | 32 | – | – | – |
| CC(C)(C)OC(=O)N1CCC(COc2ccc(C3=CCC(C(=O)NCCF)CC3)cn2)CC1 (centres unmarked) [Example 88, tert-butyl 4-((5-(4-(2-fluoroethylcarbamoyl)cyclohex-1-enyl)pyridin-2-yloxy)methyl)piperidine-1-carboxylate] | 130 | – | – | – |
| CC(C)c1noc(N2CCC(COc3ccc(C4=CCC(C(=O)NCC(F)F)CC4)nc3)CC2)n1 (centres unmarked) [Example 99, N-(2,2-difluoroethyl)-4-(5-((1-(3-isopropyl-1,2,4-oxadiazol-5-yl)piperidin-4-yl)methoxy)pyridin-2-yl)cyclohex-3-enecarboxamide] | 160 | – | – | – |
| C[C@H](CO)NC(=O)C1CC=C(c2ccc(OCC3CCN(C(=O)OC(C)(C)C)CC3)nc2)CC1 (stereo partly drawn) [Example 25, tert-butyl 4-((5-(4-((R)-1-hydroxypropan-2-ylcarbamoyl)cyclohex-1-enyl)pyridin-2-yloxy)methyl)piperidine-1-carboxylate] | 210 | – | – | – |
| CCc1cnc(N2CCC(COc3ccc(C4=CCC(C(=O)N[C@H](C)CO)CC4)cc3)CC2)nc1 (stereo partly drawn) [Example 8, 4-(4-((1-(5-ethylpyrimidin-2-yl)piperidin-4-yl)methoxy)phenyl)-N-((R)-1-hydroxypropan-2-yl)cyclohex-3-enecarboxamide] | 90 | – | – | – |
| CC(C)c1noc(N2CCC(COc3ccc(C4=CCC(C(=O)NCC(F)(F)F)CC4)cc3)CC2)n1 (centres unmarked) [Example 78, 4-(4-((1-(3-isopropyl-1,2,4-oxadiazol-5-yl)piperidin-4-yl)methoxy)phenyl)-N-(2,2,2-trifluoroethyl)cyclohex-3-enecarboxamide] | 100 | – | – | – |
| CC(C)c1noc(N2CCC(COc3ccc(C4=CCC(C(=O)NCCF)CC4)cc3)CC2)n1 (centres unmarked) [Example 75, N-(2-fluoroethyl)-4-(4-((1-(3-isopropyl-1,2,4-oxadiazol-5-yl)piperidin-4-yl)methoxy)phenyl)cyclohex-3-enecarboxamide] | 210 | – | – | – |
| CC(C)c1noc(N2CCC(COc3ccc(C4=CCC(C(=O)N5CCSCC5)CC4)cc3F)CC2)n1 (centres unmarked) [Example 98, (4-(3-fluoro-4-((1-(3-isopropyl-1,2,4-oxadiazol-5-yl)piperidin-4-yl)methoxy)phenyl)cyclohex-3-enyl)(thiomorpholino)methanone] | 6.1 | ≤ 50 | – | – |
| CC(C)(C)OC(=O)N1CCC(COc2ccc(C3=CCC(C(=O)N4CCc5ccccc5C4)CC3)cc2)CC1 (centres unmarked) [Example 239, tert-butyl 4-((4-(4-(1,2,3,4-tetrahydroisoquinoline-2-carbonyl)cyclohex-1-enyl)phenoxy)methyl)piperidine-1-carboxylate] | 22 | – | – | – |
| CC(C)c1noc(N2CCC(COc3ccc(C4=CCC(C(=O)NC[C@H](C)O)CC4)cc3)CC2)n1 (stereo partly drawn) [Example 29, N-((S)-2-hydroxypropyl)-4-(4-((1-(3-isopropyl-1,2,4-oxadiazol-5-yl)piperidin-4-yl)methoxy)phenyl)cyclohex-3-enecarboxamide] | 95 | – | – | – |
| CC(C)c1noc(N2CCC(COc3ccc(C4=CCC(C(=O)N5CCC(=O)CC5)CC4)cc3)CC2)n1 (centres unmarked) [Example 275, 1-(4-(4-((1-(3-isopropyl-1,2,4-oxadiazol-5-yl)piperidin-4-yl)methoxy)phenyl)cyclohex-3-enecarbonyl)piperidin-4-one] | – | – | 28 | ≤ 50 |
| CC(C)c1noc(N2CCC(COc3ccc(C4=CCC(C(=O)N(C)CCCNC(=O)OC(C)(C)C)CC4)cc3)CC2)n1 (centres unmarked) [Example 76, tert-butyl 3-(4-(4-((1-(3-isopropyl-1,2,4-oxadiazol-5-yl)piperidin-4-yl)methoxy)phenyl)-N-methylcyclohex-3-enecarboxamido)propylcarbamate] | 12 | ≤ 50 | – | – |
| CCc1cnc(N2CCC(COc3ccc(C4=CCC(C(=O)N(C)OC)CC4)cc3)CC2)nc1 (centres unmarked) [Example 197, 4-(4-((1-(5-ethylpyrimidin-2-yl)piperidin-4-yl)methoxy)phenyl)-N-methoxy-N-methylcyclohex-3-enecarboxamide] | 18 | ≤ 50 | – | – |
| CC(C)(C)OC(=O)N1CCC(COc2ccc(C3=CCC(C(=O)NC4CC4)CC3)cc2)CC1 (centres unmarked) [Example 2, tert-butyl 4-((4-(4-(cyclopropylcarbamoyl)cyclohex-1-enyl)phenoxy)methyl)piperidine-1-carboxylate] | 40 | ≤ 50 | – | – |
| CCc1cnc(N2CCC(COc3ccc(C4=CCC(C(=O)NCCCO)CC4)cc3)CC2)nc1 (centres unmarked) [Example 9, 4-(4-((1-(5-ethylpyrimidin-2-yl)piperidin-4-yl)methoxy)phenyl)-N-(3-hydroxypropyl)cyclohex-3-enecarboxamide] | 75 | – | – | – |
| CCc1cnc(N2CCC(COc3ccc(C4=CCC(C(=O)N5CC[C@H](F)C5)CC4)cc3)CC2)nc1 (stereo partly drawn) [Example 160, (4-(4-((1-(5-ethylpyrimidin-2-yl)piperidin-4-yl)methoxy)phenyl)cyclohex-3-enyl)((S)-3-fluoropyrrolidin-1-yl)methanone] | 14 | ≤ 50 | – | – |
| CC(C)c1noc(N2CCC(COc3ccc(C4=CCC(C(=O)N5CCC5)CC4)cc3)CC2)n1 (centres unmarked) [Example 65, azetidin-1-yl(4-(4-((1-(3-isopropyl-1,2,4-oxadiazol-5-yl)piperidin-4-yl)methoxy)phenyl)cyclohex-3-enyl)methanone] | 41 | ≤ 50 | – | – |
